Data: patent publication US20240083900A1, “PYRAZOLO[1,5-A]PYRAZINE DERIVATIVES AS BTK INHIBITORS” (BIOGEN MA INC., priority 2020, published 2024)

Experiments:
BTK = BTK (Homo sapiens (Human), UniProt Q06187); assay: In Vitro BTK Kinase Assay: Btk-PolyGAT-LS Assay; type: biochemical; settings: BTK enzyme 0.25 nM, ATP 10 μM, polyGAT 100 nM, 30 minutes incubation, TRF readout; read-out: IC50
Method in brief: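 Human BTK activity was measured with final 10 μM ATP and 100 nM polyGAT substrate in pH 7.5 Tris buffer with 10 mM MgCl2, DTT, Triton X-100 and casein.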

[1] = test system: CD69 expression on CD19+ B cells in human whole blood stimulated with anti-human IgD; assay: In Vitro whole blood CD69 Assay; type: cell-based; settings: Homo sapiens, B-cell, human heparinized whole blood, anti-human IgD stimulation overnight, percentage of CD19+ B cells expressing CD69, flow cytometry; read-out: IC50

Sequence of BTK (Q06187 whole entry): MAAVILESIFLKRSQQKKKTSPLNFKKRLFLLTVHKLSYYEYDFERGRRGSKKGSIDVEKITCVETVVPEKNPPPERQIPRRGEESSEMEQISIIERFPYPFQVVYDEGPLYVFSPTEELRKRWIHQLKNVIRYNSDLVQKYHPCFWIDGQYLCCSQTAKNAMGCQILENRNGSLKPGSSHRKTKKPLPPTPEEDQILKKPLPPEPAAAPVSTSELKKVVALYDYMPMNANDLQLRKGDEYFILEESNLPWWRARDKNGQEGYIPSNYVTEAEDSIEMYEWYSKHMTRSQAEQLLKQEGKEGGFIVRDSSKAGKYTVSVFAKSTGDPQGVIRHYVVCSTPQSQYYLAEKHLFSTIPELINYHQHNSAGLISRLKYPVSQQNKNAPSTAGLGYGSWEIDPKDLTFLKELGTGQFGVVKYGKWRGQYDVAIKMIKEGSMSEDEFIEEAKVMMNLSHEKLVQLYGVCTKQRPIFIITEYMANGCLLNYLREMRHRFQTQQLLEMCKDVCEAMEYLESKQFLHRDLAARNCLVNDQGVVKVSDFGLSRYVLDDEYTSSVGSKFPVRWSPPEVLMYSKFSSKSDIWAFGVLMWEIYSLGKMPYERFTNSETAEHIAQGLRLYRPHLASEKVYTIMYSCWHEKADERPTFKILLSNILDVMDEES

Row | Structure (SMILES) | IC50 (BTK) | IC50 [1]
1 | C=CC(=O)NC12CCCC(Oc3nc(-c4cnn(C)c4)cn4nccc34)(C1)C2 [Example 224, N-(5-((6-(1-methyl-1H-pyrazol-4-yl)pyrazolo[1,5-a]pyrazin-4-yl)oxy)bicyclo[3.1.1]heptan-1-yl)acrylamide] | < 1 nM | 1000 to 10000 nM
2 | C=CC(=O)N(CC(F)F)[C@H]1C[C@@](C)(Oc2nc(-c3cnn(C)c3)cn3nccc23)C1 [Example 226, N-(2,2-difluoroethyl)-N-((1s,3s)-3-methyl-3-((6-(1-methyl-1H-pyrazol-4-yl)pyrazolo[1,5-a]pyrazin-4-yl)oxy)cyclobutyl)acrylamide] | < 1 nM | < 1000 nM
3 | C=CC(=O)N[C@H]1C[C@@](C)(Oc2nc(-c3cnn(C)c3)cn3nccc23)C1 [Example 228, N-((1s,3s)-3-methyl-3-((6-(1-methyl-1H-pyrazol-4-yl)pyrazolo[1,5-a]pyrazin-4-yl)oxy)cyclobutyl)acrylamide] | < 1 nM | < 1000 nM
4 | C=CC(=O)N(C)[C@H]1C[C@@](C)(Oc2nc(-c3cnn(C)c3)cn3ncc(C4CC4)c23)C1 [Example 229, N-((1s,3s)-3-((3-cyclopropyl-6-(1-methyl-1H-pyrazol-4-yl)pyrazolo[1,5-a]pyrazin-4-yl)oxy)-3-methylcyclobutyl)-N-methylacrylamide] | < 1 nM | < 1000 nM
5 | Cn1cc(-c2cn3nccc3c(O[C@]3(C)C[C@H](NC(=O)/C=C/C(F)(F)F)C3)n2)cn1 [Example 231, (E)-4,4,4-trifluoro-N-((1s,3s)-3-methyl-3-((6-(1-methyl-1H-pyrazol-4-yl)pyrazolo[1,5-a]pyrazin-4-yl)oxy)cyclobutyl)but-2-enamide] | < 1 nM | < 1000 nM
6 | Cn1cc(-c2cn3nccc3c(O[C@]3(C)C[C@H](N(C)C(=O)/C=C/C(F)(F)F)C3)n2)cn1 [Example 232, (E)-4,4,4-trifluoro-N-methyl-N-((1s,3s)-3-methyl-3-((6-(1-methyl-1H-pyrazol-4-yl)pyrazolo[1,5-a]pyrazin-4-yl)oxy)cyclobutyl)but-2-enamide] | < 1 nM | < 1000 nM
7 | CC#CC(=O)N(CC(F)F)[C@H]1C[C@@](C)(Oc2nc(-c3cnn(C)c3)cn3nccc23)C1 [Example 233, N-(2,2-difluoroethyl)-N-((1s,3s)-3-methyl-3-((6-(1-methyl-1H-pyrazol-4-yl)pyrazolo[1,5-a]pyrazin-4-yl)oxy)cyclobutyl)but-2-ynamide] | < 1 nM | < 1000 nM
8 | C=CC(=O)N1[C@H]2CC[C@@H]1[C@H](Oc1nc(-c3cnn(C)c3)cn3nccc13)C2 [Example 234, 1-((1R,2R,4S)-2-((6-(1-methyl-1H-pyrazol-4-yl)pyrazolo[1,5-a]pyrazin-4-yl)oxy)-7-azabicyclo[2.2.1]heptan-7-yl)prop-2-en-1-one] | < 1 nM | 1000 to 10000 nM
9 | C=CC(=O)N1[C@@H]2CC[C@H]1[C@@H](Oc1nc(-c3cnn(C)c3)cn3nccc13)C2 [Example 235, 1-((1S,2S,4R)-2-((6-(1-methyl-1H-pyrazol-4-yl)pyrazolo[1,5-a]pyrazin-4-yl)oxy)-7-azabicyclo[2.2.1]heptan-7-yl)prop-2-en-1-one] | < 1 nM | < 1000 nM
